Test results as given in patent US12378224B2 (Dong-A Socio Holdings Co., Ltd., priority 2016, dated 2025).

How the values were obtained:
[1] = molecular target: CD8-MerTK (Ba/F3-CDM cells) (Homo sapiens, UniProt Q12866); experiment: In Cell MER Kinase Assay Using BaF3 Cellular System; assay type: cell-based; details: Ba/F3-CDM proliferation without IL-3, 48 hours, Celltiter-Glo
Source text: CD8-MerTK is a chimeric fusion protein consisting of the extracellular and transmembrane domains of the human CD8α (amino acids 1 to 209) at its N-terminus and the kinase domain and intracellular parts of MerTK (amino acids 521-994) at its C-terminus. To establish an in cell kinase assay for MerTK kinase, the IL-3 dependent Ba/F3 cells of murine lymphoid origin was transfected with CD8-MerTK. The resulting Ba/F3-CDM line was then validated that Ba/F3-CDM cell proliferation is completely dependent on the activity of MerTK kinase activity when growing in the absence of IL-3. For a routine cellular assay, Ba/F3-CDM cells were seeded at 2,000 cells per well in 384-well cell culture plate containing DMEM/10% FBS culture media and incubated for 24 hours before addition of compounds pre-diluted in culture media. Following compound treatment, cells were further incubated for 48 hours and the proliferation was measured. To discriminate a Ba/F3 growth inhibition by a specific inhibition of MerTK kinase following compound treatment vs growth inhibition due to a non-specific unintended cytotoxicity of compounds, we routinely carried out control sets of Ba/F3 cells in parallel that grown in IL3-supplemented growth media. In the presence of IL-3, the proliferation of Ba/F3 is no longer dependent on the MerTK activity. Cell growth and proliferation was measured with Celltiter-Glo™ system (Promega, USA) according to the manufacturer's instruction. The half-maximal growth inhibitory concentration (GI50) value was calculated with Prism6.0 software (GraphPad, USA).

[2] = molecular target: human c-MER catalytic domain (Homo sapiens (Human), UniProt Q12866); experiment: TR-FRET Kinase Activity Biochemical Assay (LanthaScreen); details: 10 uM ATP, 1 hour, kinase not given
Chain of human c-MER catalytic domain (Q12866 587-858): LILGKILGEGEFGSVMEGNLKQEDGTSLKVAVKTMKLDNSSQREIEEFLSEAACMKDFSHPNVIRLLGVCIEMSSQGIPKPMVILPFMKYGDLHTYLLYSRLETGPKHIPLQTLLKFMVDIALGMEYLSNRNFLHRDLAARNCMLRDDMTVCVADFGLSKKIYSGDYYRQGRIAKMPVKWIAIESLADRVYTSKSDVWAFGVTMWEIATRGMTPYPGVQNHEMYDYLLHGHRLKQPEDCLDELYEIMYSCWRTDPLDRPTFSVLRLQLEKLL
Summary of the method: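 Activity was quantified as the ratio of 495 nm to 520 nm emission (excitation 340 nm) in a LanthaScreen TR-FRET format. The enzyme was the human c-MER catalytic domain, and the substrate was fluorescein-poly-GT. Detection used 2 nM Tb anti-phosphotyrosine antibody for 30 min after termination with 10 mM EDTA.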

Chain of CD8-MerTK (Ba/F3-CDM cells) (Q12866 21-999 limits assumed, stated change not applied): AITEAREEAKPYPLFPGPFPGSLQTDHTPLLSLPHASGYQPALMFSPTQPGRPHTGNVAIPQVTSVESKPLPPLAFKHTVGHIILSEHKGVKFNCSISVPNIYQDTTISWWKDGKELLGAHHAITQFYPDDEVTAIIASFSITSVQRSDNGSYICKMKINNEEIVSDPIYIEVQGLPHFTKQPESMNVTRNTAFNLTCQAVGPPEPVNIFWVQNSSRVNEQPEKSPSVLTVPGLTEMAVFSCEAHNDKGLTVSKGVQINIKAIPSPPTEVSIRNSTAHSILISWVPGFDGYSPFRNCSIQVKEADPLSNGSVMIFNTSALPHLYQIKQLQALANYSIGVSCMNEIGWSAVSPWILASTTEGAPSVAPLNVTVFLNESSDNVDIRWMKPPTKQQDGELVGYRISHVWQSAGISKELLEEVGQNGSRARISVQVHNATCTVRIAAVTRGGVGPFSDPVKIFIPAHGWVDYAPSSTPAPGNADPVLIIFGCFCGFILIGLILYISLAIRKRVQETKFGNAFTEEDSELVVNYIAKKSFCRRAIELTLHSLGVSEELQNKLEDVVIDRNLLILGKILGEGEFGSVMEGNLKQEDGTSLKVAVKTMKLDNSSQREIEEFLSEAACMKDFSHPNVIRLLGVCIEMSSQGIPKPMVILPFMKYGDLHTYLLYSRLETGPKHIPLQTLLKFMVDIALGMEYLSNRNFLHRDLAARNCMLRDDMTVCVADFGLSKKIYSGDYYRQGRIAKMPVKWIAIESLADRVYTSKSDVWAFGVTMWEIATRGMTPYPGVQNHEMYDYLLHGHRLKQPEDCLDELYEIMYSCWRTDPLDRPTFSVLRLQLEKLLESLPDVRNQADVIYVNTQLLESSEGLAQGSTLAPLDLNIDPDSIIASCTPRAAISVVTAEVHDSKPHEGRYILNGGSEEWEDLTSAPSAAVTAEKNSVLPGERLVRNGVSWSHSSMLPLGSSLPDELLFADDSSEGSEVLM

Row | Molecule | IC50 [1] [nM] | IC50 [2] [nM]
1 | Cn1cc(-c2cnc(N)c(C(=O)N[C@@H]3CCN(C(=O)Oc4cccc(OCC5CCC(N)CC5)c4)C3)c2)cn1 (stereo partly drawn) [Example 305, 3-(((1R,4R)-4-aminocyclohexyl)methoxy)phenyl (R)-3-(2-amino-5-(1-methyl-1H-pyrazol-4-yl)nicotinamido)pyrrolidine-1-carboxylate] | > 1000 | 100 to 1000
2 | Cn1cc(-c2cnc(N)c(C(=O)N[C@@H]3CCN(C(=O)c4ccc(-c5ccc(OCC6CCNCC6)cc5)cc4)C3)c2)cn1 [Example 550] | > 1000 | 10 to 100
3 | Nc1cncc(-c2cnc(N)c(C(=O)N[C@@H]3CCN(C(=O)c4ccc(-c5ccc(F)cc5Cl)cc4)C3)c2)c1 [Example 583, (R)-5′,6-diamino-N-(1-(2′-chloro-4′-fluoro-[1,1′-biphenyl]-4-carbonyl)pyrrolidin-3-yl)-[3,3′-bipyridine]-1-5-carboxamide] | > 1000 | < 10
4 | (R)-2-amino-N-(1 chlorophenyl)carbamoyl)pyrrolidin-3-yl)-5-(1-(1-methylpiperidin-4-yl)-1H-pyrazol-4-yl)nicotinamide [Example 11] | > 1000 | 10 to 100
5 | (R)-2-amino-N-(1-(2′-chloro-[1,1′-biphenyl]-4-carbonyl)pyrrolidin-3-yl)-5-(4-(4-methylpiperazin-1-yl)phenyl)nicotinamide [Example 570] | 100 to 500 | < 10
6 | (R)-2-amino-N-(1-((4′-(dimethylamino)-[1,1′-biphenyl]-3-yl)carbamoyl)pyrrolidin-3-yl)-5-(1-methyl-1H-pyrazol-4-yl)nicotinamide [Example 263] | > 1000 | 10 to 100
